Assay [1] addresses T1, LTD4 evoked ileal contractions (Cavia porcellus, UniProt Q2NNR5).
T1 construct: A section of terminal ileum was removed, the lumen cleaned, and the tissue divided into 2.5 cm. segments; from tissue; host or cells: terminal ileum of male Hartley guinea pigs
T1 sequence (Q2NNR5 1-340): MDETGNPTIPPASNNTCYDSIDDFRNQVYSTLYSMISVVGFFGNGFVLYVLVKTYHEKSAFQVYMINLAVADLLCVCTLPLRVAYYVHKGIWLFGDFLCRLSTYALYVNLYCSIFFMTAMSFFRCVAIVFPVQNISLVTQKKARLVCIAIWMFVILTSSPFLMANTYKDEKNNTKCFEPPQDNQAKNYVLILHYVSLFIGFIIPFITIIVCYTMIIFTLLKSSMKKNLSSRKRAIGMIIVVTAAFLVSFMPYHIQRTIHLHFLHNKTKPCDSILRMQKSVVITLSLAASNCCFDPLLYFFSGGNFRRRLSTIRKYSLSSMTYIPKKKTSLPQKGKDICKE
Kind of assay: LTD4 antagonism, cumulative concentration-response curves in guinea pig ileum and trachea (pA2). The assay is classed as cell-based. Particulars: 30 minute incubation with antagonist, Furchgott method. As for the experimental part:
For some of the drugs in this series a more detailed analysis of LTD4 antagonism was made. In these experiments, cumulative concentration-response curves were obtained to LTD4 in guinea pig ileum and trachea. This was followed by a 30 minute incubation with various concentrations of the experimental drug. The concentration response curve to LTD4 was then repeated in the presence of the antagonist. Only one concentration of antagonist was used on a single tissue. KB values were calculated by the method of Furchgott [Ann. N.Y. Acad. Sci., 139, 553 (1967)]using the following equation. [formula] Dose ratio refers to the concentration of agonist required to elicit 50 percent of the maximal response (ED50) in the presence of the antagonist divided by the ED50 in the absence of the antagonist. Calculations were performed with the aid of a computer and a digital plotter.

The target in assay [2] is T1, LTD4 evoked ileal contractions. The experiment in a line: Antagonism of LTD4-evoked contraction of isolated guinea pig ileum (single concentration). Type of assay: cell-based. Particulars: pure LTD4, 5 minute exposure, read-out: Percent Inhibition of LTD4 evoked ileal contractions; for inhibition at 1 µM: 1 × 10^-6 M; for inhibition at 3 µM: 3 × 10^-6 M; for inhibition at 10 µM: 1 × 10^-5 M. As for the experimental part: Male, Hartley guinea pigs weighing 200-450 grams were killed by decapitation. A section of terminal ileum was removed, the lumen cleaned, and the tissue divided into 2.5 cm. segments. The ilea were mounted in 10 ml. tissue baths containing Krebs-bicarbonate solution of the following composition in mmoles/liter: KCl, 4.6; CaCl2.2H2 O, 1.2; KH2 PO4, 1.2; MgSO4.7H2 O, 1.2; NaCl, 118.2; NaHCO3, 24.8 and dextrose, 10.0. The bath fluid was maintained at 37° C. and aerated with 95 percent oxygen and 5 percent CO2. In addition, the buffer contained 1×10^-6 M atropine to reduce ileal spontaneous activity. In studies with crude SRS-A, 1×10^-6M pyrilamine was used to mitigate the actions of histamine present along with the biologically active leukotrienes. Isometric measurements were made with a Grass FTO3C force-displacement transducer and recorded on a Grass polygraph as change in grams of force. A passive force of 0.5 g. was applied to the tissues. After an appropriate equilibration period, single submaximal control responses to either SRS-A or pure LTD4 were obtained. Following a 5 minute exposure of the ileum to an experimental drug, the control concentration of SRS-A or LTD4 was added to the tissue bath. The response of the ileum to SRS-A or LTD4 in the presence of the drug was compared to the response in the absence of the drug.
*Compounds marked with an asterisk were tested using crude SRSA as the
ileumcontracting agent; all other compounds were tested using pure

Each structure is given as a SMILES string. Structures can show the parent of a compound that is named as a salt.

`CCCc1c(OCCCCCCc2nnn[nH]2)ccc(C(C)=O)c1O` [Example 9, 5-[6-(4-Acetyl-3-hydroxy-2-propylphenoxy)hexyl]-tetrazole]: the antagonist equilibrium constant (Kb) – broadly, the affinity of an antagonist, worked out from how it opposes an agonist – in assay [1] was 79.4 nM. Also, in assay [2], the inhibition (in general, the drop in the measured response relative to a control, in per cent) at 1 µM is 87% and the inhibition at 3 µM worked out at 100%.
Taken in the same sequence, the figures for `CCCc1c(OCCCCCCCc2nnn[nH]2)ccc(C(C)=O)c1O` [Example 10, 5-[7-(4-Acetyl-3-hydroxy-2-propylphenoxy)heptyl]-tetrazole] were 79.4 nM, 92% and 95%.
Taken in the same sequence, the figures for `CCCc1c(OCCCCCCCCc2nnn[nH]2)ccc(C(C)=O)c1O` [Example 11, 5-[8-(4-Acetyl-3-hydroxy-2-propylphenoxy)octyl]-tetrazole] were 316 nM, 89% and 100%.
Taken in the same sequence, the figures for `CCCc1c(OCCCCCCCCCc2nnn[nH]2)ccc(C(C)=O)c1O` [Example 12, 5-[9-(4-Acetyl-3-hydroxy-2-propylphenoxy)nonyl]-tetrazole] were 316 nM, 78% and 90%.
With `CCCc1c(OCCCCCCCCCCc2nnn[nH]2)ccc(C(C)=O)c1O` [Example 13, 5-[10-(4-Acetyl-3-hydroxy-2-propylphenoxy)decyl]-tetrazole], the Kb in assay [1] is 316 nM. For the same compound, in assay [2], the inhibition at 1 µM was found to be 76% and the inhibition at 3 µM turned out to be 93%.
`CCCc1c(OCCCCCc2nnn[nH]2)ccc(C(C)=O)c1O` [Example 22, 5-[5-(4-Acetyl-3-hydroxy-2-propylphenoxy)pentyl]-tetrazole]: in assay [1], the Kb was 263 nM. The inhibition at 3 µM in assay [2] stood at 87%.
Taken in the same sequence, the figures for `CCCc1c(OCCCCCC(=O)O)ccc(C(C)=O)c1O` [Example 24, 6-(4-Acetyl-3-hydroxy-2-propylphenoxy)hexanoic acid] were 398 nM and 81%.
Turning to `CCCc1c(OCCCCCCCCC(=O)O)ccc(C(C)=O)c1O` [Example 31, 9-(4-Acetyl-3-hydroxy-2-propylphenoxy)nonanoic acid], the Kb in assay [1] is 2000 nM. In assay [2], the inhibition at 10 µM came to 94% and the inhibition at 1 µM was 51%.
In assay [1], `CCCc1c(OCCCCCC(=O)O)ccc(C(=O)CC)c1O` [Example 34, 6-(4-Propionyl-3-hydroxy-2-propylphenoxy)hexanoic acid] showed a Kb of 794 nM. In assay [2], the inhibition at 10 µM stood at 88% and the inhibition at 3 µM is 56%.
As for `CCCc1c(OCCCCC(C)(C)c2nnn[nH]2)ccc(C(C)=O)c1O` [Example 39, 5-[5-(4-Acetyl-3-hydroxy-2-propylphenoxy)-1,1-dimethylpentyl]-tetrazole], the inhibition at 1 µM in assay [2] is 89%.
`CC(=O)c1ccc(OC(C)CCCCC(=O)O)cc1O` (stereo not drawn) [Example 41, 6-(4-Acetyl-3-hydroxyphenoxy)heptanoic acid]: the inhibition at 3 µM in assay [2] is 10%.
As for `CCCc1c(OCCCCCCO)ccc(C(C)=O)c1O` [Example 42, 6-(4-Acetyl-3-hydroxy-2-propylphenoxy)-1-hexanol], in assay [2], the inhibition at 10 µM was determined as 74% and the inhibition at 3 µM was 46%.
For `CCCc1c(OCCCCc2nnn[nH]2)ccc(C(=O)c2ccccc2)c1O` [Example 43, 5-[4-(4-Benzoyl-3-hydroxy-2-propylphenoxy)butyl]-tetrazole], in assay [2], the inhibition at 1 µM is 34% and the inhibition at 3 µM was found to be 56%.
As to `CCCc1c(OCCCCC(C)(C)C(=O)OC)ccc(C(C)=O)c1O` [Example 44, Methyl 6-(4-acetyl-3-hydroxy-2-propylphenoxy)-2,2-dimethylhexanoate], the inhibition at 3 µM in assay [2] turned out to be 55%.
For the compound `CCCc1c(OCCCCC(C)(C)C(=O)O)ccc(C(C)=O)c1O` [Example 45, 6-(4-Acetyl-3-hydroxy-2-propylphenoxy)-2,2-dimethylhexanoic acid], in assay [2], the inhibition at 10 µM was determined as 94% and the inhibition at 3 µM turned out to be 73%.
With `COC(=O)C(C)(C)CCCCOc1ccc(C(C)=O)c(O)c1` [Example 46, Methyl 6-(4-acetyl-3-hydroxyphenoxy)-2,2-dimethylhexanoate], the inhibition at 10 µM in assay [2] was 23%.
Consider `CC(=O)c1ccc(OCCCCC(C)(C)C(=O)O)cc1O` [Example 47, 6-(4-Acetyl-3-hydroxyphenoxy)-2,2-dimethylhexanoic acid], for which, in assay [2], the inhibition at 10 µM turned out to be 22%.
For the compound `CCCc1c(OC(CCC)CCCCC(=O)O)ccc(C(C)=O)c1O` (stereo not drawn) [Example 48, 6-(4-Acetyl-3-hydroxy-2-propylphenoxy)nonanoic acid], in assay [2], the inhibition at 10 µM was 34%.
Still for that read-out and setting: the value for `CCCC(CCCCC(=O)O)Oc1ccc(C(C)=O)c(O)c1` (stereo not drawn) [Example 49, 6-(4-Acetyl-3-hydroxyphenoxy)nonanoic acid] was 18%.
Regarding `CCCc1c(OCCCCCc2nnnn2CC(=O)O)ccc(C(C)=O)c1O` [Example 50, 5-(1H)-[5-(4-Acetyl-3-hydroxy-2-propylphenoxy)pentyl]-1-tetrazolylacetic acid], the inhibition at 1 µM in assay [2] was 66%.
Still for that read-out and setting: then `CCCc1c(OCCCCCc2nnn(CC(=O)O)n2)ccc(C(C)=O)c1O` [Example 51, 5-(2H)-[5-(4-acetyl-3-hydroxy-2-propylphenoxy)pentyl]-2-tetrazolylacetic acid], with 69%; and `CCCc1c(OCCCCCc2nnnn2C)ccc(C(C)=O)c1O` [Example 52, 1-Methyl-5-(1H)-[5-(4-acetyl-3-hydroxy-2-propylphenoxy)pentyl]-tetrazole], with 38%.
Turning to `CCCc1c(OCCCCC(=O)OCC)ccc(C(C)=O)c1O` [Example 54, Ethyl 5-(4-acetyl-3-hydroxy-2-propylphenoxy)pentanoate], in assay [2], the inhibition at 1 µM worked out at 40% and the inhibition at 3 µM was found to be 56%.
Taken in the same sequence, the figures for `CCCc1c(OCCCCC(N)=O)ccc(C(C)=O)c1O` [Example 55, 5-(4-Acetyl-3-hydroxy-2-propylphenoxy)pentanoic acid amide] were 28% and 59%.
Taken in the same sequence, the figures for `CCCc1c(OCCCCC(=O)N(C)C)ccc(C(C)=O)c1O` [Example 56, N,N-dimethyl-5-(4-acetyl-3-hydroxy-2-propylphenoxy)pentanoic acid amide] were 17% and 42%.
Regarding `CCCc1c(OCCCSC(=N)N)ccc(C(C)=O)c1O` [Example 60, S-[3-(4-Acetyl-3-hydroxy-2-propylphenoxy)propyl]-isothiuronium hydrobromide], in assay [2], the inhibition at 1 µM worked out at 28% and the inhibition at 3 µM stood at 55%.
With `CCCc1c(OCCCCC(=O)NO)ccc(C(C)=O)c1O` [Example 61, 5-(4-Acetyl-3-hydroxy-2-propylphenoxy)pentanehydroxamic acid], in assay [2], the inhibition at 1 µM was 28% and the inhibition at 3 µM is 70%.
Regarding `CCCc1c(OCCCCCCSc2nn[nH]n2)ccc(C(C)=O)c1O` [Example 71, 5-[6-(4-Acetyl-3-hydroxy-2-propylphenoxy)hexanethio]-tetrazole], in assay [2], the inhibition at 10 µM worked out at 100% and the inhibition at 1 µM amounted to 95%.
`CCCc1c(OCCCCCCCSc2nn[nH]n2)ccc(C(C)=O)c1O` [Example 72, 5-[7-(4-Acetyl-3-hydroxy-2-propylphenoxy)heptanethio]-tetrazole]: in assay [2], the inhibition at 1 µM amounted to 100%.

The values above are taken from patent US4661505A, “Leukotriene antagonists” (Eli Lilly and Company, priority 1982, dated 1987).
